Like-named read-outs stand apart in the source and are kept apart here.
Key:
[1] = biological target: T1, human recombinant adrenergic α1D receptor (Homo sapiens, UniProt P25100); assay: Radioligand binding, adrenergic α1D ([3H]Prazosin)
T1 construct: expressed in transfected cells; host or cells: HEK-293
T1 sequence (P25100 1-572): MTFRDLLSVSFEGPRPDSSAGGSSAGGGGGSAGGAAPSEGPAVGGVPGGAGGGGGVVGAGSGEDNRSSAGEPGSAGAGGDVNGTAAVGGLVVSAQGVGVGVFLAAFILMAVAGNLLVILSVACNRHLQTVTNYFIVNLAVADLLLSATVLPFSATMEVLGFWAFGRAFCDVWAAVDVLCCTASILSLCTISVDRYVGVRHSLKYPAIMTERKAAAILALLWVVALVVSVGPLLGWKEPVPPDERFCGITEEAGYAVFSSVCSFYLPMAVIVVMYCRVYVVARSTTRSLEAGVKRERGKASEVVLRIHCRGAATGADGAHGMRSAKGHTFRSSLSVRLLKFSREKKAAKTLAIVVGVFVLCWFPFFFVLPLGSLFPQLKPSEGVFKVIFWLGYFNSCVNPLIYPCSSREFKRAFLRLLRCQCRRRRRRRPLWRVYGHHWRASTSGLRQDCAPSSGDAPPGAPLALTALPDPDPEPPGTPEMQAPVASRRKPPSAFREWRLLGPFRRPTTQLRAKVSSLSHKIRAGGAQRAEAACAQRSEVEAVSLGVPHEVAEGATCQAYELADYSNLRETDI
Procedure: Compounds were incubated with 0.6 nM [3H]Prazosin for 60 min at 25° C. Non-specific binding was estimated in the presence of 10 μM phentolamine. Receptor proteins were filtered and washed, the filters were then counted to determine [3H]Prazosin specifically bound. […] Biochemical assay results are presented as the percent inhibition of specific binding in Table B1.

[2] = biological target: T2, rat adrenergic α1B receptor (Rattus norvegicus, UniProt P15823); assay: Radioligand binding, adrenergic α1B ([3H]Prazosin)
T2 construct: rat adrenergic α1B receptor obtained from Wistar Rat liver; from tissue; host or cells: Wistar rat liver
T2 sequence (P15823 1-515): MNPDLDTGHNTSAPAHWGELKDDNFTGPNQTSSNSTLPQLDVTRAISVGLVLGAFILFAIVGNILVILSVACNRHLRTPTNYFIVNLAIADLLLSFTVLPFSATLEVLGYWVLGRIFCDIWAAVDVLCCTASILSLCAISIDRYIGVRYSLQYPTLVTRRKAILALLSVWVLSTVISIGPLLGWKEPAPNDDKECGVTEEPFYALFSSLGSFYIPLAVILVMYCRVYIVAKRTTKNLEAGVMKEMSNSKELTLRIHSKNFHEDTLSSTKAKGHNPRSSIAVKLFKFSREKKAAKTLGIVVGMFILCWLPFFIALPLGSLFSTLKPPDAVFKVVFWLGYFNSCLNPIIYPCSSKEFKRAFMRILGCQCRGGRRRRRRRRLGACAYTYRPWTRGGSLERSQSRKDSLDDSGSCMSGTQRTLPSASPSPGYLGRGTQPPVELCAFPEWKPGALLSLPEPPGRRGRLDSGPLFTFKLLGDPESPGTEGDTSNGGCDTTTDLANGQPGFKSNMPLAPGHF
Method in brief: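 Incubation ran 60 min at 25 °C in Tris-HCl buffer (50 mM, pH 7.4, 0.5 mM EDTA) with Wistar rat liver α1B receptor. 10 μM phentolamine set non-specific binding.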

[3] = biological target: T3, human recombinant adrenergic α2B receptor (Homo sapiens, UniProt P18089); assay: Radioligand binding, adrenergic α2B ([3H]Rauwolscine)
T3 construct: expressed in transfected cells; host or cells: CHO-K1
T3 sequence (P18089 1-450): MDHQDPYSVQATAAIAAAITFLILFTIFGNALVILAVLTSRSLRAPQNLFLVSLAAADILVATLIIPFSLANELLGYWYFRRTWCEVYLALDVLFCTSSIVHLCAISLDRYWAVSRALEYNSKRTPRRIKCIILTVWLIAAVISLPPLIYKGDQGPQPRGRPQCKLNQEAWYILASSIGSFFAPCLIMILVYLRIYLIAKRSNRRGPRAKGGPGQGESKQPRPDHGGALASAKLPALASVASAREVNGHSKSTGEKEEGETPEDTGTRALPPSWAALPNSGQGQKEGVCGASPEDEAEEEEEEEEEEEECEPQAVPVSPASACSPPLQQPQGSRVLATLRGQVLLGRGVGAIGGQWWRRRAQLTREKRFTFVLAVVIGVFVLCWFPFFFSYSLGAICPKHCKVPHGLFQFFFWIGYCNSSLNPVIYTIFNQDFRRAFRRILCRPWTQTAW
Method in brief: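 Receptor expressed in CHO-K1 cells, assayed in 50 mM Tris-HCl pH 7.4 with 12.5 mM MgCl2, 1 mM EDTA and 0.2% BSA. Compounds were incubated with 2.5 nM [3H]Rauwolscine for 60 min at 25° C; 10 μM Prazosin defined non-specific binding. Filter counting gave percent inhibition of specific binding.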

[4] = biological target: T4, human recombinant adrenergic α2A receptor (Homo sapiens, UniProt P08913); assay: Radioligand binding, adrenergic α2A ([3H]MK-912)
T4 construct: expressed in transfected cells; host or cells: insect Sf9 cells
T4 sequence (P08913 1-465): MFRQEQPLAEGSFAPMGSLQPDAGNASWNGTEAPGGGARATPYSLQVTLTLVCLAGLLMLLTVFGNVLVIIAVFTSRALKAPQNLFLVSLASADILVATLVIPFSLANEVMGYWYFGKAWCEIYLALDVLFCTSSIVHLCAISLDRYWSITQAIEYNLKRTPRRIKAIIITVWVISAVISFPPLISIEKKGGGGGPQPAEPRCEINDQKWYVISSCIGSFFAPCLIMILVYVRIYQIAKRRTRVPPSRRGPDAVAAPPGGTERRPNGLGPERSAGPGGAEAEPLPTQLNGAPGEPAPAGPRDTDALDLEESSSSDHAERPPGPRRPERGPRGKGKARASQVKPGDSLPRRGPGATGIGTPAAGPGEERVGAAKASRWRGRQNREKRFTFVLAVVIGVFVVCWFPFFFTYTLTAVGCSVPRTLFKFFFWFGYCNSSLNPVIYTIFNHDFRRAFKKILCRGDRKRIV
Method in brief: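 In 50 mM Tris-HCl (pH 7.4) containing 12.5 mM MgCl2 and 2 mM EDTA, Sf9-expressed receptor was exposed to test compound plus 1 nM [3H]MK-912 at 25 °C for 60 min. Specific binding, corrected using 10 μM WB-4101, was quantified by filtration and counting and expressed as percent inhibition.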

[5] = 0.1 μM compound, read-out: Percentage inhibition of ligand binding, Adrenergic α1D
[6] = 0.1 μM compound, read-out: Percentage inhibition of ligand binding, Adrenergic α1B
[7] = 0.1 μM compound, read-out: Percentage inhibition of ligand binding, Adrenergic α2B
[8] = 0.1 μM compound, read-out: Percentage inhibition of ligand binding, Adrenergic α2A
[9] = read-out: Percentage inhibition of ligand binding, Adrenergic α1D (0.1 μM), compound at 0.1 μM, [3H]Prazosin, repeat datapoints each shown
[10] = read-out: Percentage inhibition of ligand binding, Adrenergic α1B (0.1 μM), compound at 0.1 μM, [3H]Prazosin, repeat datapoints each shown
[11] = read-out: Percentage inhibition of ligand binding, Adrenergic α2B (0.1 μM), compound at 0.1 μM, [3H]Rauwolscine, repeat datapoints each shown
[12] = read-out: Percentage inhibition of ligand binding, Adrenergic α2A (0.1 μM), compound at 0.1 μM, [3H]MK-912, repeat datapoints each shown

SMILES	inhibition at 0.1 µM [1, 5]	inhibition at 0.1 µM [2, 6]	inhibition at 0.1 µM [3, 7]	inhibition at 0.1 µM [4, 8]	inhibition at 0.1 µM [1, 9]	inhibition at 0.1 µM [2, 10]	inhibition at 0.1 µM [3, 11]	inhibition at 0.1 µM [4, 12]	also measured
CN1CCc2c(c3cc(Cl)ccc3n2CCC(=O)OCC2CCCCC2)C1 [compound 87]									inhibition at 0.1 µM ([1]; compound at 0.1 μM, [3H]Prazosin, repeat assays, each datapoint shown, read-out: Percentage inhibition of ligand binding, Adrenergic α1D): 24%; inhibition at 0.1 µM ([2]; compound at 0.1 μM, [3H]Prazosin, repeat assays, each datapoint shown, read-out: Percentage inhibition of ligand binding, Adrenergic α1B): 5%; inhibition at 0.1 µM ([3]; compound at 0.1 μM, [3H]Rauwolscine, repeat assays, each datapoint shown, read-out: Percentage inhibition of ligand binding, Adrenergic α2B): 66%; inhibition at 0.1 µM ([4]; compound at 0.1 μM, [3H]MK-912, repeat assays, each datapoint shown, read-out: Percentage inhibition of ligand binding, Adrenergic α2A): 14%
Cc1ccc2c(c1)c1c(n2CCc2cccc(N(C)C)c2)CCN(C)C1 [compound 298, {3-[2-(2,8-dimethyl-1,2,3,4-tetrahydro-pyrido[4,3-b]indol-5-yl)-ethyl]-phenyl}-dimethyl-amine]	17%	60%	51%	54%					
Cc1ccc2c(c1)c1c(n2C=C(c2ccccc2)c2ccccc2)CCN(C)C1 [compound 267]	26%	7%	85%	63%					
C=C(Cn1c2c(c3cc(Cl)ccc31)CN(C)CC2)c1ccncc1 [compound 116]					26%	23%	75%	22%	
C/C(=C/n1c2c(c3cc(C)ccc31)CCN(C)CC2)c1ccccc1F [compound 230]					58%	94%	93%	87%	

Further lines, with some results ahead:

inhibition at 0.1 µM [1, 5]	inhibition at 0.1 µM [2, 6]	inhibition at 0.1 µM [3, 7]	inhibition at 0.1 µM [4, 8]	inhibition at 0.1 µM [1, 9]	inhibition at 0.1 µM [2, 10]	inhibition at 0.1 µM [3, 11]	inhibition at 0.1 µM [4, 12]	SMILES	also measured
66%	54%	108%	43%					CCc1ccc(/C(C)=C/n2c3c(c4cc(C)ccc42)CN(C)CC3)cn1 [II-77]	
23%	13%	48%	45%					Cc1ccc2c(c1)c1c(n2C2=C(c3ccc(C)nc3)CCC2)CCN(C)C1 [II-82, 2,8-dimethyl-5-(2-(6-methylpyridin-3-yl)cyclopent-1-enyl)-2,3,4,5-tetrahydro-1H-pyrido[4,3-b]indole]	inhibition at 0.03 µM ([3]; 0.03 μM compound, read-out: Percentage inhibition of ligand binding, Adrenergic α2B): 35%; Percentage inhibition of ligand binding, Adrenergic α2B ([3]; 0.1 μM compound, 0.1 µM): 53%; Ki ([3]; read-out: Ki α2B): 26.8 nM
				53%	23%	27%	-4%	Cc1cnc2c(c1)c1c(n2CCc2ccc(C(F)(F)F)nc2)CCN(C)C1 [II-119, 3,6-dimethyl-9-(2-(6-(trifluoromethyl)pyridin-3-yl)ethyl)-6,7,8,9-tetrahydro-5H-pyrrolo[2,3-b:4,5-c′]dipyridine]	

From patent US8791132B2, “Compounds and methods for treatment of hypertension” (Medivation Technologies, Inc., priority 2011, dated 2014)
